In PMC13280021, “Collateral hypersensitivity between ZY19489 and piperaquine neutralizes PfCRT-mediated drug efflux and Plasmodium falciparum resistance” (Nature Communications, 2025):
Read-outs that look alike come from different tables or passages of the source.

Assays:
[1] = test system: T1, Plasmodium falciparum Dd2^Dd2crt; assay: microbe, parasite or virus in culture; parameters: species or system P. falciparum in human red blood cells; asexual blood stage growth inhibition, flow cytometry with SYBR Green I and MitoTracker Deep Red; conditions: DD2, Erythrocyte, 72 h
T1 construct: Dd2
Protocol: Susceptibility to all drugs tested in this study was measured by incubating asynchronous, ABS parasites plated at 0.2% to 0.3% parasitemia (or 0.8% for the poorly growing ZY19489-resistant lines harboring the pfcrt N246H allele) and 1% hematocrit at 37 °C in 96-well plates. The assays were set up across a range of drug concentrations with two-fold dilutions. For the experiments testing for susceptibility of recrudescent parasite lines that emerged in humanized NSG mice to ZY19489, M5717, MMV693183, or ferroquine, parasites were cultured at 2% hematocrit in human O^+ or A^+ RBCs in RPMI-1640 media, supplemented with 25 mM HEPES (Fisher), 50 mg/L hypoxanthine (Sigma Aldrich), 2 mM L-glutamine (Cambridge Isotope Laboratories, Inc.), 0.21% sodium bicarbonate (Sigma Aldrich), 0.5% (w/v) Albumax (Invitrogen), 8% filtered, heat-inactivated, pooled off-the-clot AB^+ human serum (Interstate Blood Bank or New York Blood Center), and 10 μg/mL gentamicin (Fisher). The parental P. falciparum Pf3D7^0087/N9 strain that has been adapted to proliferate in this humanized NSG mouse model was cultured in parallel as the drug-sensitive control strain. All compound susceptibility assays for the recrudescent lines and parental control strain were performed using 8% serum-containing medium. Parasite growth in each well was assessed after 72 h using flow cytometry of cultures stained with SYBR Green I and MitoTracker Deep Red (Supplementary Fig. S12). IC50 and IC90 values were derived from growth inhibition data using nonlinear regression analysis (GraphPad Prism 7) or linear interpolation (assays for recrudescent lines from humanized mice). Unless otherwise stated, assays were performed on four independent occasions with technical duplicates, and statistical comparisons were made using two-tailed Mann–Whitney U tests. Gated RBCs 97.0% Live parasites 3.80% A B Forward scatter (FSC-H) MitoTracker Deep Red Supplementary Fig. 12: Gating strategy for flow cytometry-based quantification of P. falciparum asexual blood stage parasite proliferation in drug susceptibility and growth rate assays. Intra-erythrocytic parasites were seeded at 0.3% - 0.8% parasitemia and 1% hematocrit for 72 hours in the presence of a range of drug concentrations that had been 2-fold serially diluted in duplicates along with drug-free controls. Cells were then labeled with 1× SYBR Green (Invitrogen) and 100 nM MitoTracker Deep Red FM (Invitrogen) as nuclear stain and vital dyes, respectively. Parasite survival was assessed by flow cytometry on an Intellicyt iQue3 (Essen Bioscience). Between 9,000 and 15,000 events were counted per sample. […] (A) Forward (FSC-H) and side scatter (SSC-H) gating of the total red blood cell (RBC) population, representing 97.0% of the total events counted. (B) Gating strategy used to quantify viable intracellular parasites, which are positively stained by both MitoTracker Deep Red and SYBR Green I and appear as events in the upper right gate (live parasites, 3.80% parasitemia). Uninfected erythrocytes appear in the lower left gate as MitoTracker Deep Red and SYBR Green I negative populations.

[2] = target: T2, P. falciparum chloroquine resistance transporter (PfCRT), 7G8 + F145I isoform (Plasmodium falciparum, UniProt W7FI62, F145I); assay: […] [3H]PPQ uptake in PfCRT proteoliposomes; format: biochemical
T2 construct: gene CRT; purified PfCRT 7G8 + F145I reconstituted in proteoliposomes
T2 sequence (W7FI62 whole entry F145I, canonical isoform): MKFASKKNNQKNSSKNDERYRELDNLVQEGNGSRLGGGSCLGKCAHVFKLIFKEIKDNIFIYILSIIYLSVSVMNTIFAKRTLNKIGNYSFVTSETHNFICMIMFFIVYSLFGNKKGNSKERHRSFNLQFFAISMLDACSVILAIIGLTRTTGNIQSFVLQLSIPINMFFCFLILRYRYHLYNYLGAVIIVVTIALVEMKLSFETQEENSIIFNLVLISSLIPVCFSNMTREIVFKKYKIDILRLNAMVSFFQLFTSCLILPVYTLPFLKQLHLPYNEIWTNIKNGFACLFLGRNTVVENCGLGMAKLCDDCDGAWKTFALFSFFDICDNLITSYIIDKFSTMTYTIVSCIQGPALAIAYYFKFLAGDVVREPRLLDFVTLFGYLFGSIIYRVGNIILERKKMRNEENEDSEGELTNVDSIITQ

[3] = test system: T3, Plasmodium falciparum TAD_022; assay: microbe, parasite or virus in culture; parameters: species or system P. falciparum 3D7^0087/N9 in human red blood cells; asexual blood stage growth inhibition in 8% human serum medium, flow cytometry; conditions: Erythrocyte, 72 h; for IC50: read-out: IC50 ± SEM (nM); for IC90: read-out: IC90 ± SEM (nM)
T3 construct: 3D7^0087/N9 (TAD_022)
Protocol: Susceptibility to all drugs tested in this study was measured by incubating asynchronous, ABS parasites plated at 0.2% to 0.3% parasitemia (or 0.8% for the poorly growing ZY19489-resistant lines harboring the pfcrt N246H allele) and 1% hematocrit at 37 °C in 96-well plates. The assays were set up across a range of drug concentrations with two-fold dilutions. For the experiments testing for susceptibility of recrudescent parasite lines that emerged in humanized NSG mice to ZY19489, M5717, MMV693183, or ferroquine, parasites were cultured at 2% hematocrit in human O^+ or A^+ RBCs in RPMI-1640 media, supplemented with 25 mM HEPES (Fisher), 50 mg/L hypoxanthine (Sigma Aldrich), 2 mM L-glutamine (Cambridge Isotope Laboratories, Inc.), 0.21% sodium bicarbonate (Sigma Aldrich), 0.5% (w/v) Albumax (Invitrogen), 8% filtered, heat-inactivated, pooled off-the-clot AB^+ human serum (Interstate Blood Bank or New York Blood Center), and 10 μg/mL gentamicin (Fisher). The parental P. falciparum Pf3D7^0087/N9 strain that has been adapted to proliferate in this humanized NSG mouse model was cultured in parallel as the drug-sensitive control strain. All compound susceptibility assays for the recrudescent lines and parental control strain were performed using 8% serum-containing medium. Parasite growth in each well was assessed after 72 h using flow cytometry of cultures stained with SYBR Green I and MitoTracker Deep Red (Supplementary Fig. S12). IC50 and IC90 values were derived from growth inhibition data using nonlinear regression analysis (GraphPad Prism 7) or linear interpolation (assays for recrudescent lines from humanized mice). Unless otherwise stated, assays were performed on four independent occasions with technical duplicates, and statistical comparisons were made using two-tailed Mann–Whitney U tests. To assess potential cross-resistance between M5717 and ZY19489, we tested three M5717-resistant lines (TAD_470, TAD_462, and TAD_464), which harbored distinct PfeEF2 mutations (I183M, P754S, and I182T, respectively), for susceptibility to ZY19489.

[4] = target: T4, P. falciparum chloroquine resistance transporter (PfCRT), 7G8 isoform (Plasmodium falciparum, UniProt W7FI62); assay: […] [3H]CQ uptake in PfCRT proteoliposomes; format: biochemical
T4 construct: gene CRT; purified PfCRT 7G8 reconstituted in proteoliposomes
T4 sequence (W7FI62 whole entry, canonical isoform): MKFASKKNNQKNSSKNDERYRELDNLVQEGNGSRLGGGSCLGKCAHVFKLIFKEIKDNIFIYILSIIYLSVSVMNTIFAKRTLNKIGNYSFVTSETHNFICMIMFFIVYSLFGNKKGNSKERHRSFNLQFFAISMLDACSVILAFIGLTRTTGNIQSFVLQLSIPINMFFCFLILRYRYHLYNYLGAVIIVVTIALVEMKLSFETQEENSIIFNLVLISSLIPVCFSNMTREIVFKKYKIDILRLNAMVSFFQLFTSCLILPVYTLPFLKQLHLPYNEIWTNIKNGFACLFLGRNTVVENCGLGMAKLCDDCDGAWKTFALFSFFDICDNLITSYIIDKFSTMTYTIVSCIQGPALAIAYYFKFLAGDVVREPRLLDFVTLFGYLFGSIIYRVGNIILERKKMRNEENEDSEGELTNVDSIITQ

[5] = target: T2, P. falciparum chloroquine resistance transporter (PfCRT), 7G8 + F145I isoform; assay: inhibition of [3H]PPQ uptake in PfCRT proteoliposomes; format: biochemical; conditions: read-out: % inhibition of [3H]PPQ transport at 1 μM

## C[C@H]1[C@@H](O)O[C@@H]2O[C@@]3(C)CC[C@H]4[C@H](C)CC[C@@H]1[C@@]24OO3 [DHA, dihydroartemisinin]
[1]; read-out: DHA IC50
  IC50: 2.6 ± 0.2 nM
[1]; read-out: DHA IC90
  IC90: 4.7 ± 0.6 nM

## CCNCc1cc(Nc2ccnc3cc(Cl)ccc23)ccc1O [DEAQ, mono-desethylamodiaquine]
[1]; read-out: DEAQ IC50
  IC50: 43.8 ± 5.9 nM
[1]; read-out: DEAQ IC90
  IC90: 78.7 ± 8.8 nM

## COC(=O)[C@H](CCCN=C(NC(=O)OCOC(=O)Cc1ccccc1)NC(=O)OCOC(=O)Cc1ccccc1)NS(=O)(=O)c1ccc(C)cc1 [pro-TAME]
[1]; read-out: IC50
  IC50: 58400 ± 7100 nM
[1]; read-out: IC90
  IC90: 91000 ± 11300 nM

## Clc1ccc2c(N3CCN(CCCN4CCN(c5ccnc6cc(Cl)ccc56)CC4)CC3)ccnc2c1 [PPQ, piperaquine]
[2]
  100 nM [3H]PPQ uptake in PfCRT proteoliposomes: interference was also observed against [^3H]PPQ transport by the PPQ-resistant isoform 7G8 + F145I
[1]; read-out: PPQ IC50
  IC50: 12 ± 1 nM
[1]; read-out: PPQ IC90
  IC90: 22.3 ± 4.6 nM

## O=C(NCCN1CCCC1)c1cc(-c2ccc(CN3CCOCC3)cc2)nc2ccc(F)cc12 [M5717]
[3]
  IC50: 0.4 ± 0.01 nM
  IC90: 0.8 ± 0.1 nM

## O=C1CCC(N2C(=O)c3ccccc3C2=O)C(=O)N1 (stereo not drawn) [Thalidomide]
[1]; read-out: IC50 (nM)
  IC50: 85200 ± 5060 nM
[1]; read-out: IC90 (nM)
  IC90: 115700 ± 1110 nM

## CCCCN(CCCC)CC(O)c1cc(Cl)cc2c1-c1ccc(Cl)cc1/C2=C/c1ccc(Cl)cc1 (stereo not drawn) [LMF, lumefantrine]
[1]; read-out: LMF IC50
  IC50: 6 ± 1.2 nM
[1]; read-out: LMF IC90
  IC90: 11.2 ± 1.8 nM

## CCN(CC)CCCC(C)Nc1ccnc2cc(Cl)ccc12 (stereo not drawn) [CQ, chloroquine]
[4]
  100 nM [3H]CQ uptake in PfCRT proteoliposomes: [^3H]CQ transport by the CQ-resistant 7G8 isoform
[1]; read-out: CQ IC50
  IC50: 104 ± 5.7 nM
[1]; read-out: CQ IC90
  IC90: 217 ± 11.3 nM
[1]; read-out: IC50 (nM)
  IC50: 94.6 ± 6.6 nM
[1]; read-out: IC90 (nM)
  IC90: 177 ± 24.1 nM

## COc1ccc(C2=N[C@@H](c3ccc(Cl)cc3)[C@@H](c3ccc(Cl)cc3)N2C(=O)N2CCNC(=O)C2)c(OC(C)C)c1 [Nutlin-3]
[1]; read-out: IC50 (nM)
  IC50: 5660 ± 511 nM
[1]; read-out: IC90 (nM)
  IC90: 9130 ± 714 nM

## Cc1nc(Nc2ncc(N3CCN(C)[C@H](C)C3)c(Nc3cc(C)n(C)n3)n2)cc(C2CC2)c1F [ZY19489]
[5]
  inhibition at 1 µM: 79%
[3]
  IC50: 7.2 ± 0.9 nM
  IC90: 17.1 ± 1.1 nM

## O=C1C(O)=C([C@H]2CC[C@H](c3ccc(Cl)cc3)CC2)C(=O)c2ccccc21 [ATQ, atovaquone]
[1]; read-out: ATQ IC50
  IC50: 2.5 ± 0.4 nM
[1]; read-out: ATQ IC90
  IC90: 5.3 ± 0.7 nM
